The values below are quoted from earlier work in US7354953B2, “Time-release compositions for delivery of [Cr3O(carboxylate)6(H2O)3]+” (University of Alabama, priority 2006, dated 2008).

The test system of data set [1] is rats. Particulars: for effect on body mass, percentage lean or fat content, tissue size, blood variables: rats on regular diets.
The target of data set [2] is insulin receptor (Homo sapiens, UniProt P06213).
The subject of data set [3] is healthy and model type 2 diabetic rats.
Data set [4] has as its system colorectal cancer in rat.
The conditions of data set [5]: in vivo.
The test system of data set [6] is DNA.
Data set [7] concerns adult-onset diabetic patients.
In data set [8] the test system is chromosome.
The mark [9] stands for this setting: healthy and model type 2 diabetic rats.

insulin receptor, sequence (P06213 763-1382 limits assumed, species assumed): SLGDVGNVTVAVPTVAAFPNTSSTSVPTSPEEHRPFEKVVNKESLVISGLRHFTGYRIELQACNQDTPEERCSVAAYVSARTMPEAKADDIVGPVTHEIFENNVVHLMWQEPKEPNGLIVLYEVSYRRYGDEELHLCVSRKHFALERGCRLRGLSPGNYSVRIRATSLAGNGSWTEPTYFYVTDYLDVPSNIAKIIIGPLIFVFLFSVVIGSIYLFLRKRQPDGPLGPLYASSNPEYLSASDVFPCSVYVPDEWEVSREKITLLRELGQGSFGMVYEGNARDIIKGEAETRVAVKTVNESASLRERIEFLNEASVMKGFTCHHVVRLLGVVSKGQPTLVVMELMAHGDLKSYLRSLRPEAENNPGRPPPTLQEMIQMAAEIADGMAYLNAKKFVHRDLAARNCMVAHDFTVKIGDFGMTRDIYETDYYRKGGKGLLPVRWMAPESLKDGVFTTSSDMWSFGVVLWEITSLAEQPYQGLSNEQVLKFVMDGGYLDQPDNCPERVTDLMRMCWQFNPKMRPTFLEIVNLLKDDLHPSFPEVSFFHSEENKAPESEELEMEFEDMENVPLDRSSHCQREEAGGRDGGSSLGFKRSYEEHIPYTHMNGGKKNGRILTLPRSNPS
insulin receptor, sequence (P06213 28-758 partner limits assumed, species assumed): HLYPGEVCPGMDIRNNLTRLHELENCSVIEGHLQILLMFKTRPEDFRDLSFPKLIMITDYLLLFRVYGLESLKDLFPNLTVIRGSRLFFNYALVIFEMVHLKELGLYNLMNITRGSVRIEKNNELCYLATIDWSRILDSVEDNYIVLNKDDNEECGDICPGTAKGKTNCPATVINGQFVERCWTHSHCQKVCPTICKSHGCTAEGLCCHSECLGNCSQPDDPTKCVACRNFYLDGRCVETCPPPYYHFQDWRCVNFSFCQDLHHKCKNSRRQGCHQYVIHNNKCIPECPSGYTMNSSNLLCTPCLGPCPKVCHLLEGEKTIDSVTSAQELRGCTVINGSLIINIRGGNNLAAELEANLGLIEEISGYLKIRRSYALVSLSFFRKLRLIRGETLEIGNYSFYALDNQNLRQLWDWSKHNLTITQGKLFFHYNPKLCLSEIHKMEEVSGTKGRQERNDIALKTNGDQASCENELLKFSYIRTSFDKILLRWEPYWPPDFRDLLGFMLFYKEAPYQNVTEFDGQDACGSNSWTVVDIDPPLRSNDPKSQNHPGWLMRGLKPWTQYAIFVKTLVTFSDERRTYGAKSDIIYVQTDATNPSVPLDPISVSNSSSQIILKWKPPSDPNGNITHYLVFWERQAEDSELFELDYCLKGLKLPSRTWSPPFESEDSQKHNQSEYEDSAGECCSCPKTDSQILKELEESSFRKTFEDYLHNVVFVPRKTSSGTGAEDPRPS

Consider `[Cl][Cr]([Cl])[Cl]` [chromium chloride], for which the “effect on body mass, percentage lean or fat content, tissue size, blood variables” value in data set [1] is given as “no effect”.
On to `CCC(=O)[O-].CCC(=O)[O-].CCC(=O)[O-].CCC(=O)[O-].CCC(=O)[O-].CCC(=O)[O-].O.O.O.[Cr+3].[Cr+3].[Cr+3].[O-2]` [Complex 1, [[Cr3O(O2CCH2CH3)6(H2O)3]^+], for which the “ability to stimulate insulin receptor kinase activity” value in data set [2] is listed as “mimic the ability of LMWCr to stimulate insulin receptor kinase activity”. For the same compound, the glycated hemoglobin entry in data set [3] (diabetes models) is “reduce glycated hemoglobin”. Also, in data set [3] (setting [9]), the “blood plasma cholesterol and triglycerides levels” value is on record as “improve”; the insulin sensitivity result is reported as “increase insulin sensitivity”. Besides, the “onset of colorectal cancer” value in data set [4] was “reduce the onset of colorectal cancer”. In data set [5], the “absorption (rate and efficiency, in words)” value is “absorbed very rapidly and very efficiently”; the absorption efficiency is given as 40-60%. Moreover, in data set [6], the DNA cleavage result was “not to lead to DNA cleavage”.
Regarding “chromium(III) tris(picolinate) [Cr(pic)3]”, the insulin requirements entry in data set [7] (138 adult-onset diabetic patients) was “reduced insulin requirements”. Moreover, the glycemic control result in data set [7] (180 adult-onset diabetic patients) is reported as “improved glycemic control”. Moreover, the absorption efficiency in data set [5] is given as 0.5-2%. In data set [1], the “effect on body mass, percentage lean or fat content, tissue size, blood variables” value is on record as “no effect”. For the same compound, in data set [1] (rats, up to 1500 μg/kg diet for up to 24 weeks), the acute toxic effects entry is recorded as “no acute toxic effects”. Further, in data set [8], the chromosome damage result was “cause chromosome damage”.
